According to patent US20260256738A1, “METHODS OF TREATING CANCER WITH A RAS MUTATION” (Immuneering Corporation, priority 2023, published 2026):

Experiments:
[1] = system: pERK in A549 (KRAS-G12S); experiment: Cell-based pERK dose response / phospho-ERK screen in A549; design: species or system Human; conditions: for pERK: total ERK (% relative to vehicle): A549 (KRAS G12S), 10 μM for 2 hours
Experimental: Materials and Methods: A549 or A375 cells were seeded in 6-well plates at an appropriate seeding density on day 0. On day 2 or 3, after checking the health and confluency of cells, the media was aspirated and replaced with 1 mL media containing a predetermined concentration of compound and incubated for 2 hours. After 2 hours, the media was aspirated, and the cells washed 2 times with cold PBS. Cells were lysed on ice, with 50 μL 1× CST lysis buffer+1 mM PMSF for 5 minutes. After 5 minutes, cells were removed using a scraper and transferred to cold 1.5 mL tubes, and centrifuged for 10 min, 4° C., 14,000×g. Supernatant was gently removed and snap frozen in liquid nitrogen. Protein concentration of the lysate was determined using Bradford Reagent (analyzed using SpectraMax M2E) and diluted to 1 mg/mL or pERK or 1.5 mg/mL for pMEK analysis. […] All dilutions were in Milk-free antibody diluent.

[2] = eLogD (lipophilicity; pH=7.4); format: physicochemical
Experimental: Test compounds were dissolved in DMSO at a concentration of 10 mM and further diluted with methanol:water 1:1. Samples were analyzed using gradient HPLC with three different isocratic mobile phases of 0.25% octanol in methanol (60, 65 and 70%) and 20 mM MOPS buffer (pH 7.4) with decylamine. If needed, (for low E log Doct compounds) the isocratic mobile phases were adjusted to e.g. 40, 45 and 50% methanol. Peaks were detected using a diode array at absorbance 220-320 nm.
Capacity factors data (k′_(tr−_t0)/t0) obtained at various amounts of methanol were extrapolated to 0% methanol and k′w values are determined using a linear procedure. E log Doct (7.4) is calculated using a series of reference standards with known Log D values. Each experiment was performed in triplicate.

[3] = molecular target: CYP450 2C19 (Homo sapiens, UniProt P33261); experiment: CYP450 Panel; format: in vitro ADME; conditions: 10 μM; substrate mephenytoin; in % (unit assumed)
[4] = molecular target: T1, CYP450 2C8 (Homo sapiens, UniProt P10632); experiment: CYP450 Panel; format: in vitro ADME; conditions: 10 μM; substrate amodiaquine
T1 sequence (P10632 1-490): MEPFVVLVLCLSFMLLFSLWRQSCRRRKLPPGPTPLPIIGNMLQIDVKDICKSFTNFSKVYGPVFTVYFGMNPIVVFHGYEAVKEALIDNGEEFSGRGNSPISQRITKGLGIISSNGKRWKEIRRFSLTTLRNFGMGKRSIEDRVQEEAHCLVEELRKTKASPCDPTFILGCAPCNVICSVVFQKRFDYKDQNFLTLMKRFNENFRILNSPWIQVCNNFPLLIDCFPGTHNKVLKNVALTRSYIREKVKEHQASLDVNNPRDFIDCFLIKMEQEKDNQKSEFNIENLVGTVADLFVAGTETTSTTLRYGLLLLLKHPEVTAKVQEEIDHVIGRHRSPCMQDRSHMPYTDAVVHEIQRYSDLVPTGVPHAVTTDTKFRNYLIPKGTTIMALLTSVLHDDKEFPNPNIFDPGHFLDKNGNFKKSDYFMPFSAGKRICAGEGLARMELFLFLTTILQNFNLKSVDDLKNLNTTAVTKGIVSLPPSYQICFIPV

[5] = molecular target: CYP450 2C9 (Homo sapiens, UniProt P11712); experiment: CYP450 Panel; format: in vitro ADME; conditions: 10 μM; substrate Diclofenac; in % (unit assumed)
[6] = molecular target: CYP450 3A4 (Homo sapiens, UniProt P08684); experiment: CYP450 Panel; format: in vitro ADME; conditions: 10 μM; for CYP450 Panel 3A4 (midazolam): substrate midazolam; for CYP450 Panel 3A4 (testosterone): substrate testosterone
[7] = molecular target: T2, CYP450 1A2 (Homo sapiens, UniProt P05177); experiment: CYP450 Panel; conditions: 10 μM; substrate phenacetin; in % (unit assumed)
T2 sequence (P05177 1-516): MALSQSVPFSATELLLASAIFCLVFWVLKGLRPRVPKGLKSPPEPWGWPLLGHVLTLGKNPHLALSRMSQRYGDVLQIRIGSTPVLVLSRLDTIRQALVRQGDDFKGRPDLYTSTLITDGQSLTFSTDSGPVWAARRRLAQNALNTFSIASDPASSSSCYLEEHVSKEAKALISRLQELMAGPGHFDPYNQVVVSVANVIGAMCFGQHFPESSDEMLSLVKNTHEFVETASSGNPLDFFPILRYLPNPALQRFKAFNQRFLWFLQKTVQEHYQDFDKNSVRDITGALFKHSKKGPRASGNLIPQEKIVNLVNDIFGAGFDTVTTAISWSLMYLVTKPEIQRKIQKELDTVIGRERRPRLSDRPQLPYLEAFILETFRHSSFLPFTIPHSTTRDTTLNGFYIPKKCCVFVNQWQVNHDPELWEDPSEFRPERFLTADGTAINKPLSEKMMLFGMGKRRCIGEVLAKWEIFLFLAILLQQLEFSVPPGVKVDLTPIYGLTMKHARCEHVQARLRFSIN

[8] = Plasma Stability (% remaining @2 hour); format: in vitro ADME; conditions: Beagle Dog; 2 μM
[9] = Microsome Stability (% remaining @1 hour); format: in vitro ADME; conditions: SD Rat; 2 μM
[10] = molecular target: T3, CYP450 2B6 (Homo sapiens, UniProt P20813); experiment: CYP450 Panel; format: in vitro ADME; conditions: 10 μM; substrate bupropion
T3 sequence (P20813 1-491): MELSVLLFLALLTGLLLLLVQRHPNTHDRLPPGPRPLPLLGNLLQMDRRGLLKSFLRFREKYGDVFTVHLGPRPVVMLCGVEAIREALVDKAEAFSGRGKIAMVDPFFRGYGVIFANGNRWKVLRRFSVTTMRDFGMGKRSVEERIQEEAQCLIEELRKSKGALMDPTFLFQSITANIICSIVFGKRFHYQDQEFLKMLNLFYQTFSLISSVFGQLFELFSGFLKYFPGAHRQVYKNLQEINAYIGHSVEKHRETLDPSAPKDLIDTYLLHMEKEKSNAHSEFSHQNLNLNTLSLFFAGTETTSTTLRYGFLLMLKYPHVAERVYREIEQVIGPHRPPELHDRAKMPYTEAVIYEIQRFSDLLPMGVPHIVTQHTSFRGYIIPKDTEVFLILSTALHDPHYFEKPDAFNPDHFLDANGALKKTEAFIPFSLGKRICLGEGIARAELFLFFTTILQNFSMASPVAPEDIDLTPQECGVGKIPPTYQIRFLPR

[11] = Microsome Stability (% remaining @1 hour); conditions: CD-1 Mouse; 2 μM

Sequence of CYP450 3A4 (P08684 whole entry): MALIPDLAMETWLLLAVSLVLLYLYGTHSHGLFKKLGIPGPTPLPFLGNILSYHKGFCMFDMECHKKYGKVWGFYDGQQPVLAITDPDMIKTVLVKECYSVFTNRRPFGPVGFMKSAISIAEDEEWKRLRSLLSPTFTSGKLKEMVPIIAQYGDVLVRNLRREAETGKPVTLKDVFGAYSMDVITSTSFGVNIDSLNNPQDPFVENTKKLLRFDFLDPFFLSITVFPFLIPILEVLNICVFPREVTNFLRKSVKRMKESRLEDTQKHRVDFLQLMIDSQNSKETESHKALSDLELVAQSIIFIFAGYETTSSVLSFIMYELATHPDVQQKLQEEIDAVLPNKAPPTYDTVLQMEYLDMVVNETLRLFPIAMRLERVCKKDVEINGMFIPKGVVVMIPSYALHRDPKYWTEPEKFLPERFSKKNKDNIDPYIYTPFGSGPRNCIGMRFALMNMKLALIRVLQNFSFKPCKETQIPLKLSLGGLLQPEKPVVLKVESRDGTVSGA
Sequence of CYP450 2C19 (P33261 whole entry): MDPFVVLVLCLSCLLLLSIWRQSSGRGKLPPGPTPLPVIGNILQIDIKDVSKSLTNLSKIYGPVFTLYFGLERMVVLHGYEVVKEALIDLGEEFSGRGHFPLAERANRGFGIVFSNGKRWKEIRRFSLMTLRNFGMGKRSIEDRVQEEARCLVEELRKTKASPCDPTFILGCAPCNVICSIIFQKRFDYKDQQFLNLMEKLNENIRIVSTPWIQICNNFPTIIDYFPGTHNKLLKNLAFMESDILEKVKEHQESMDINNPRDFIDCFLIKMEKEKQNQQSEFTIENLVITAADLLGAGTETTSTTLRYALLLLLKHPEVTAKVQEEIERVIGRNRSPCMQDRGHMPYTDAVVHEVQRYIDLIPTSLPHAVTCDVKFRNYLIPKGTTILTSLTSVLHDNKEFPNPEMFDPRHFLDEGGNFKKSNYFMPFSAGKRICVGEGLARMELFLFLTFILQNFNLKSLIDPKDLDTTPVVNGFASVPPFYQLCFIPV
Sequence of CYP450 2C9 (P11712 whole entry): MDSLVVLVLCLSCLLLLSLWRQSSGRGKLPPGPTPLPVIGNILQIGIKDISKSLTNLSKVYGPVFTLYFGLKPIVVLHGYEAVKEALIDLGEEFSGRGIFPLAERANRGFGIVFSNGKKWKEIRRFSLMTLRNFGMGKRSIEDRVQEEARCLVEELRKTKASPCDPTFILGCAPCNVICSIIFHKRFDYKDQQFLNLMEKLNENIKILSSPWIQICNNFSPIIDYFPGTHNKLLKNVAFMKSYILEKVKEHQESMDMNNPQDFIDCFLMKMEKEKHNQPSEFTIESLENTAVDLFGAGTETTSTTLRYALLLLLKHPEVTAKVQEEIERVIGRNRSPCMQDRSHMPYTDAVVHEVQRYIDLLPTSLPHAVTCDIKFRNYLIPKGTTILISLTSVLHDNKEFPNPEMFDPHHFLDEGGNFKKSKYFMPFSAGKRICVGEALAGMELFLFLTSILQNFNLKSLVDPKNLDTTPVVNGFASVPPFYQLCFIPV

Cn1cnc2c(F)c(Nc3ccc(Br)cc3Cl)c(C(=O)NOCCO)cc21 [Reference 1, Selumetinib]
pERK: total ERK (% relative to vehicle) ([1]; Table 8A): 0.48%
pERK: total ERK (% relative to vehicle) ([1]; Table 8B): 2.40%
eLogD (lipophilicity; pH = 7.4) [2]: 3.6
CYP450 Panel 2C19 [3]: 13.9
CYP450 Panel 2C8 [4]: 18.9%
CYP450 Panel 2C9 [5]: 14.1
CYP450 Panel 3A4 (midazolam) [6]: 25.9%
CYP450 Panel 3A4 (testosterone) [6]: 21.4%
CYP450 Panel 1A2 [7]: 8.3
Plasma stability, % Remaining @2 hour [8]: 100.4%
Microsome stability, % Remaining @1 hour [9]: 54.6%
CYP450 Panel 2B6 [10]: 30.2%
Microsome stability, % Remaining @1 hour [11]: 13.9%

CNS(=O)(=O)Nc1cccc(Cc2c(CN(C)C)c3ccc(OC(=O)N(C)C)cc3oc2=O)c1F [Compound A, 4-((dimethylamino)methyl)-3-(2-fluoro-3-((N-methylsulfamoyl)amino)benzyl)-2-oxo-2H-chromen-7-yl dimethylcarbamate]
IC50 ([1]; Homo sapiens, A549, 2 hr incubation, read-out: pERK IC50 (A549) [12-point dose]): 19.8 nM
chromatographic logD [2]: 3
eLogD (lipophilicity; pH = 7.4) [2]: 3.0
CYP450 Panel 2C19 [3]: 8.2
CYP450 Panel 2C8 [4]: 4%
CYP450 Panel 2C9 [5]: 6.8
CYP450 Panel 3A4 (midazolam) [6]: 16.3%
CYP450 Panel 3A4 (testosterone) [6]: 26.8%
CYP450 Panel 1A2 [7]: 4.8
Plasma stability, % Remaining @2 hour [8]: 96.8%
Microsome stability, % Remaining @1 hour [9]: 28.8%
CYP450 Panel 2B6 [10]: 14.8%
Microsome stability, % Remaining @1 hour [11]: 54.3%
